Consider one molecule from patent US10787481B2, “Sugar-dipeptide conjugates as flavor molecules” (NESTEC S.A., priority 2015, dated 2020).

The test system of test [1] is sensory panel. Nature of the test: Taste threshold concentration in model broth (sensory panel, triangle test). In kind it is in vivo, human. The note with it: versus β-alanyl-L-glycine. The procedure:
The sensory tests were performed in a sensory panel room at 20-25° C. To avoid a retro-nasal aroma or taste impression, nose clips were used. The sensory panel consisted of 8 to 14 trained persons. The panel was trained to evaluate the taste of aqueous solutions (1 mL each) of the following standard taste compounds by using a triangle test: saccharose (50 mmol/L) and L-alanine (15 mmol/L), respectively, for sweet taste; lactic acid (20 mmol/L) for sour taste; NaCl (12 mmol/L) for salty taste; caffeine (1 mmol/L) and quinine hydrochloride (0.05 mmol/L), respectively, for bitter taste; sodium glutamate (8 mmol/L, pH 5.7) for umami taste; and tannin (0.05%) for astringency. The “white meaty” oral sensations was assessed in a model broth solution prepared from monosodium glutamate monohydrate (1.9 g/L), yeast extract (2.1 g/L), maltodextrin (6.375 g/L) and sodium chloride (2.9 g/L) in bottled water (pH 5.9).

Test [2] deals with sensory panel. The note with it: chicken soup with 1 g monosodium glutamate in 500 mL; compound at 2 g/L; 12 panelists. The method, then:
Chicken soups were prepared by dissolving 6 g chicken base powder (detailed recipe shown in Table 1) and 1 g monosodium glutamate in 500 mL hot water.
The sensory evaluation was carried out by 12 panelists, previously screened for their sensory abilities.

For test [3], the system named is sensory panel. The note with it: tomato soup; compound at 2 g/L.

Read-outs that look alike come from different tables or passages of the source.

Take `O=C(O)CNC(=O)CCNCC(=O)[C@@H](O)[C@H](O)[C@H](O)CO`: in the test with sensory panel [1], the “lowering of the taste threshold molar concentration by a factor” value is given as “about 4”. In addition, the “sensory difference described by panel” value in the test on sensory panel [2] is “increased the spicy, savory and meaty flavours”; in the test with sensory panel [3] it was “increased the savory, fatty and spicy notes”.
